Assay results taken from US20210269434A1, “TRICYCLIC COMPOUNDS AS INHIBITORS OF KRAS” (Incyte Corporation, priority 2020, published 2021).

Columns and labels:
[1] = biological target: KRAS G12C (Homo sapiens, UniProt P01116, G12C); experiment: GDP-GTP exchange assay (KRAS_G12C exchange); type: biochemical; conditions: bodipy-GDP loaded KRAS G12C 2.5 nM, SOS1 150 nM, GppNHp; 2 hours pre-incubation, 2 hours reaction; read-out: G12C_exchange
Outline: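 Fluorescence exchange of bodipy-GDP for GppNHp, SOS1-driven, read at 485/520 nm; IC50 from four-parameter variable-slope fit. Both mutants used 2.5 nM final labelled protein and a 2 h compound pre-incubation. G12C reaction had 500 uM GppNHp and 150 nM SOS1 for 2 h; G12D ran 4 h.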

[2] = system: MIA PaCa-2 (KRAS G12C) cells; experiment: Cellular pERK HTRF assay (KRAS_G12C pERK); type: cell-based, human; conditions: Homo sapiens, MIA PaCa-2, 4 hours incubation, read-out: G12C_pERK
Outline: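 MIA PaCa-2 cells plated overnight, then exposed to compound for 4 h at 37 °C (G12C compounds). Phospho-ERK1/2 measured in lysates by HTRF (665/620 nm) after overnight antibody incubation; IC50 from percent inhibition versus log concentration.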

KRAS G12C, sequence (P01116 1-188 isoform P01116-2 G12C): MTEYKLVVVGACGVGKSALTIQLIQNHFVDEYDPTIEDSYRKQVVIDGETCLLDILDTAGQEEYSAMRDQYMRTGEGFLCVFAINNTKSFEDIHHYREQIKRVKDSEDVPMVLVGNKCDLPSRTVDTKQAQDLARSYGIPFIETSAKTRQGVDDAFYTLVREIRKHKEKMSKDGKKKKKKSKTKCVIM

Row | Structure (SMILES) | IC50 [1] [nM] | IC50 [2] [nM]
1 | COC/C=C/C(=O)N1CC[C@H](n2nnc3c(OC[C@@H]4CCCN4C)nc4c(F)c(-c5cccc(C)c5C)c(C)cc4c32)C[C@H]1CC#N [Example 140, 2-((2S,4S)-4-(7-(2,3-dimethylphenyl)-6-fluoro-8-methyl-4-(((S)-1-methylpyrrolidin-2-yl)methoxy)-1H-[1,2,3]triazolo[4,5-c]quinolin-1-yl)-1-((E)-4-methoxybut-2-enoyl)piperidin-2-yl)acetonitrile] | ≤ 100 | ≤ 100
2 | Cc1cccc(-c2c(C)cc3c(nc(OC[C@@H]4CCCN4C)c4nnn([C@H]5CCN(C(=O)/C=C/C(F)F)[C@H](CC#N)C5)c43)c2F)c1C [Example 141, 2-((2S,4S)-1-((E)-4,4-difluorobut-2-enoyl)-4-(7-(2,3-dimethylphenyl)-6-fluoro-8-methyl-4-(((S)-1-methylpyrrolidin-2-yl)methoxy)-1H-[1,2,3]triazolo[4,5-c]quinolin-1-yl)piperidin-2-yl)acetonitrile] | ≤ 100 | ≤ 100
3 | C=CC(=O)N1CC[C@H](n2nnc3c(O[C@@H](C)CN(C)C)nc4c(F)c(-c5cccc(C)c5C)c(C)cc4c32)C[C@H]1CC#N [Example 142, 2-((2S,4S)-1-acryloyl-4-(4-(((S)-1-(dimethylamino)propan-2-yl)oxy)-7-(2,3-dimethylphenyl)-6-fluoro-8-methyl-1H-[1,2,3]triazolo[4,5-c]quinolin-1-yl)piperidin-2-yl)acetonitrile] | ≤ 100 | ≤ 100
4 | Cc1cccc(-c2c(C)cc3c(nc(O[C@@H](C)CN(C)C)c4nnn([C@H]5CCN(C(=O)/C=C/CF)[C@H](CC#N)C5)c43)c2F)c1C [Example 143, 2-((2S,4S)-4-(4-(((S)-1-(dimethylamino)propan-2-yl)oxy)-7-(2,3-dimethylphenyl)-6-fluoro-8-methyl-1H-[1,2,3]triazolo[4,5-c]quinolin-1-yl)-1-((E)-4-fluorobut-2-enoyl)piperidin-2-yl)acetonitrile] | ≤ 100 | ≤ 100
5 | Cc1cccc(-c2c(C)cc3c(nc(O[C@@H](C)CN(C)C)c4nnn([C@H]5CCN(C(=O)/C=C/C(F)F)[C@H](CC#N)C5)c43)c2F)c1C [Example 144, 2-((2S,4S)-1-((E)-4,4-difluorobut-2-enoyl)-4-(4-(((S)-1-(dimethylamino)-propan-2-yl)oxy)-7-(2,3-dimethylphenyl)-6-fluoro-8-methyl-1H-[1,2,3]triazolo[4,5-c]quinolin-1-yl)piperidin-2-yl)acetonitrile] | ≤ 100 | ≤ 100
6 | COC/C=C/C(=O)N1CC[C@H](n2nnc3c(O[C@@H](C)CN(C)C)nc4c(F)c(-c5cccc(C)c5C)c(C)cc4c32)C[C@H]1CC#N [Example 145, 2-((2S,4S)-4-(4-(((S)-1-(dimethylamino)propan-2-yl)oxy)-7-(2,3-dimethylphenyl)-6-fluoro-8-methyl-1H-[1,2,3]triazolo[4,5-c]quinolin-1-yl)-1-((E)-4-methoxybut-2-enoyl)piperidin-2-yl)acetonitrile] | ≤ 100 | ≤ 100
7 | CC#CC(=O)N1CC[C@H](n2nnc3c(O[C@@H](C)CN(C)C)nc4c(F)c(-c5cccc(C)c5C)c(C)cc4c32)C[C@H]1CC#N [Example 146, 2-((2S,4S)-1-(but-2-ynoyl)-4-(4-(((S)-1-(dimethylamino)propan-2-yl)oxy)-7-(2,3-dimethylphenyl)-6-fluoro-8-methyl-1H-[1,2,3]triazolo[4,5-c]quinolin-1-yl)piperidin-2-yl)acetonitrile] | ≤ 100 | ≤ 100
8 | C=CC(=O)N1CC[C@H](n2nnc3c(N4CC(N(C)C)C4)nc4c(F)c(-c5cccc(C)c5C)c(C)cc4c32)C[C@H]1CC#N [Example 147, 2-((2S,4S)-1-acryloyl-4-(4-(3-(dimethylamino)azetidin-1-yl)-7-(2,3-dimethylphenyl)-6-fluoro-8-methyl-1H-[1,2,3]triazolo[4,5-c]quinolin-1-yl)piperidin-2-yl)acetonitrile] | ≤ 100 | ≤ 100
9 | Cc1cccc(-c2c(C)cc3c(nc(N4CC(N(C)C)C4)c4nnn([C@H]5CCN(C(=O)/C=C/C(F)F)[C@H](CC#N)C5)c43)c2F)c1C [Example 148, 2-((2S,4S)-1-((E)-4,4-difluorobut-2-enoyl)-4-(4-(3-(dimethylamino)azetidin-1-yl)-7-(2,3-dimethylphenyl)-6-fluoro-8-methyl-1H-[1,2,3]triazolo[4,5-c]quinolin-1-yl)piperidin-2-yl)acetonitrile] | ≤ 100 | ≤ 100
10 | Cc1cccc(-c2c(Cl)cc3c(nc(N4CC(N(C)C)C4)c4ncn([C@H]5CCN(C(=O)/C=C/CF)[C@H](CC#N)C5)c43)c2F)c1C [Example 149, 2-((2S,4S)-4-(8-chloro-4-(3-(dimethylamino)azetidin-1-yl)-7-(2,3-dimethylphenyl)-6-fluoro-1H-imidazo[4,5-c]quinolin-1-yl)-1-((E)-4-fluorobut-2-enoyl)piperidin-2-yl)acetonitrile] | ≤ 100 | ≤ 100
11 | Cc1nccn1-c1nc2c(F)c(-c3ccccc3)c(Cl)cc2c2c1ncn2[C@H]1CCN(C(=O)/C=C/CN(C)C)[C@H](CC#N)C1 [Example 151, 2-((2S,4S)-4-(8-chloro-6-fluoro-4-(2-methyl-1H-imidazol-1-yl)-7-phenyl-1H-imidazo[4,5-c]quinolin-1-yl)-1-((E)-4-(dimethylamino)but-2-enoyl)piperidin-2-yl)acetonitrile] | ≤ 100 | ≤ 100
12 | Cc1nccn1-c1nc2c(F)c(-c3ccccc3)c(Cl)cc2c2c1ncn2[C@H]1CCN(C(=O)/C=C/CF)[C@H](CC#N)C1 [Example 152, 2-((2S,4S)-4-(8-chloro-6-fluoro-4-(2-methyl-1H-imidazol-1-yl)-7-phenyl-1H-imidazo[4,5-c]quinolin-1-yl)-1-((E)-4-fluorobut-2-enoyl)piperidin-2-yl)acetonitrile] | ≤ 100 | ≤ 100
13 | Cc1nccn1-c1nc2c(F)c(-c3ccccc3)c(Cl)cc2c2c1nnn2[C@H]1CCN(C(=O)/C=C/CN(C)C)[C@H](CC#N)C1 [Example 153, 2-((2S,4S)-4-(8-chloro-6-fluoro-4-(2-methyl-1H-imidazol-1-yl)-7-phenyl-1H-[1,2,3]triazolo[4,5-c]quinolin-1-yl)-1-((E)-4-(dimethylamino)but-2-enoyl)piperidin-2-yl)acetonitrile] | ≤ 100 | ≤ 100
14 | C=CC(=O)N1CC[C@H](n2nnc3c(N4CC(N(C)C)C4)nc4c(F)c(-c5ccccc5)c(Cl)cc4c32)C[C@H]1CC#N [Example 154, 2-((2S,4S)-1-acryloyl-4-(8-chloro-4-(3-(dimethylamino)azetidin-1-yl)-6-fluoro-7-phenyl-1H-[1,2,3]triazolo[4,5-c]quinolin-1-yl)piperidin-2-yl)acetonitrile] | ≤ 100 | ≤ 100
15 | C=CC(=O)N1CC[C@H](n2nnc3c(OC[C@@H]4CCCN4C)nc4c(F)c(-c5ccccc5)c(Cl)cc4c32)C[C@H]1CC#N [Example 155, 2-((2S,4S)-1-acryloyl-4-(8-chloro-6-fluoro-4-(((S)-1-methylpyrrolidin-2-yl)methoxy)-7-phenyl-1H-[1,2,3]triazolo[4,5-c]quinolin-1-yl)piperidin-2-yl)acetonitrile] | ≤ 100 | ≤ 100
16 | C=CC(=O)N1CC[C@H](n2nnc3c(-n4ccnc4C)nc4c(F)c(-c5ccccc5)c(C)cc4c32)C[C@H]1CC#N [Example 156, 2-((2S,4S)-1-acryloyl-4-(6-fluoro-8-methyl-4-(2-methyl-1H-imidazol-1-yl)-7-phenyl-1H-[1,2,3]triazolo[4,5-c]quinolin-1-yl)piperidin-2-yl)acetonitrile] | ≤ 100 | ≤ 100
17 | Cc1cc2c(nc(OC[C@@H]3CCCN3C)c3nnn([C@H]4CCN(C(=O)/C=C/CN(C)C)[C@H](CC#N)C4)c32)c(F)c1-c1ccccc1C(F)(F)F [Example 158a, 2-((2S,4S)-1-((E)-4-(dimethylamino)but-2-enoyl)-4-(6-fluoro-8-methyl-4-(((S)-1-methylpyrrolidin-2-yl)methoxy)-7-(2-(trifluoromethyl)phenyl)-1H-[1,2,3]triazolo[4,5-c]quinolin-1-yl)piperidin-2-yl)acetonitrile] | ≤ 100 | ≤ 100
18 | Cc1cc2c(nc(OC[C@@H]3CCCN3C)c3nnn([C@H]4CCN(C(=O)/C=C/C(F)F)[C@H](CC#N)C4)c32)c(F)c1-c1ccccc1C(F)(F)F [Example 161a, 2-((2S,4S)-1-((E)-4,4-difluorobut-2-enoyl)-4-(6-fluoro-8-methyl-4-(((S)-1-methylpyrrolidin-2-yl)methoxy)-7-(2-(trifluoromethyl)phenyl)-1H-[1,2,3]triazolo[4,5-c]quinolin-1-yl)piperidin-2-yl)acetonitrile] | ≤ 100 | ≤ 100
19 | CC#CC(=O)N1CC[C@H](n2nnc3c(OC[C@@H]4CCCN4C)nc4c(F)c(-c5ccccc5C(F)(F)F)c(C)cc4c32)C[C@H]1CC#N [Example 162a, 2-((2S,4S)-1-(but-2-ynoyl)-4-(6-fluoro-8-methyl-4-(((S)-1-methylpyrrolidin-2-yl)methoxy)-7-(2-(trifluoromethyl)phenyl)-1H-[1,2,3]triazolo[4,5-c]quinolin-1-yl)piperidin-2-yl)acetonitrile] | ≤ 100 | ≤ 100
20 | CC#CC(=O)N1CC[C@H](n2nnc3c(N4CC(N(C)C)C4)nc4c(F)c(-c5ccccc5C(F)(F)F)c(C)cc4c32)C[C@H]1CC#N [Example 166a, 2-((2S,4S)-1-(but-2-ynoyl)-4-(4-(3-(dimethylamino)-azetidin-1-yl)-6-fluoro-8-methyl-7-(2-(trifluoromethyl)-phenyl)-1H-[1,2,3]triazolo-[4,5-c]quinolin-1-yl)piperidin-2-yl)acetonitrile] | ≤ 100 | ≤ 100
